Laboratory results taken from US10617677B2, “Nuclear transport modulators and uses thereof” (Biogen MA Inc., priority 2012, dated 2020).
Entries after “also recorded” stand apart in the source; their conditions may differ.

Legend:
[1] = test system: IMQ-induced psoriasis; test: Imiquimod (IMQ)-induced dermal inflammation/psoriasis model, Study 1; type: in vivo, mice; details: 1 μM, Day 1 to Day 13 daily
Description: Forty (40) male BALB/c mice aged 6 to 8 weeks were used with a pretreatment body weight of 22 to 30 g. The BALB/c mice were randomized into four (4) groups of 10 mice per group. A small area (about 2×2 cm^2) of skin on the dorsum of all the animals was neatly shaved. Group-I animals served as Naïve animals. Psoriasis was induced in Groups II to IV [Group II (IMQ; vehicle), Group III (IMQ; […] Animals were observed daily for a period of 13 days for any treatment-related symptoms. The daily observations included body weight, feed intake, skin thickening, scaling, folding, erythema, nasal discharge, movement, respiration, hair, distended abdomen, skin condition, fur, mucous membrane, presence or absence of secretions, eye condition, tail elevation, motor activity, posture and gait. Severity of damage to the dorsal portion of the skin was assessed by assigning erythema, scaling, folding and skin thickening scores based on external observations of skin, according to rubric in Table 9. […] Compound 2 was prepared by dissolving 1.47 mg of Compound 2 in 300 μL of 100% DMSO.

[2] = test system: anti-collagen antibody induced arthritis; test: Anti-collagen antibody induced mouse model of rheumatoid arthritis (CAIA); type: in vivo, mice
Experimental: Twenty-four (24) male Balb/c mice, aged 6 to 8 weeks were used. […] On study Day 0 (study commencement), all mice were subjected to a 2 mg intravenous injection of ArthritoMAb™ antibody cocktail (MD Biosciences # S1203001) followed by an intraperitoneal injection of LPS ([…]) on study Day 3. […] Treatments were administered once daily on days 4, 6, 8 and 10 for all groups, except where dosing vacations applied. If an animal's weight dropped below 87% of its day 0 starting weight, the animal was not dosed until it gained weight equivalent to 90% or more of day 0 weight.
Arthritis development, clinical signs and body weights were monitored in all mice on study days 0, 3-8, 10 and 12. Observations included changes in skin, fur, eyes, mucous membranes, occurrence of secretions and excretions (e.g., diarrhea) and autonomic activity (e.g., lacrimation, salivation, piloerection, pupil size, unusual respiratory pattern). All paws (front left and right, and rear left and right) of each animal were examined for signs of arthritogenic responses prior to arthritis induction and test item or control item administration on study Day 0 and subsequently on study Days 3-8, 10 and 12 (study termination). Arthritis reactions were scored and recorded according to a 0-4 scale in ascending order of severity, as shown Table 5 below. Paw thickness was also measured using a dial caliper (Kroeplin, Munich, Germany).
The dose administered was calculated based on the assumption that the animals weighed, on average, 20 g. […] Vehicle for the vehicle control group was prepared by dissolving 0.6 g Pluronic and 0.6 g PVP in 100 mL distilled deionised water. The MAb stock solution (10 mg/mL) was supplied by MD Biosciences, Division of Morwell Diagnostics GmbH. LPS was diluted with PBS to achieve the appropriate concentration. Thorough vortexing was required just prior to its injection. […] A fixed volume of 200 μL was administered to each mouse.
Evaluation was primarily based on the mean values for arthritis scoring and paw thickness measurements. Where appropriate, analysis of the data by ANOVA with Tukey post hoc analysis was applied to determine significance of treatment effects.

## O=C(/C=C\n1cnc(-c2cc(C(F)(F)F)cc(C(F)(F)F)c2)n1)NNC(=O)CN1CCOCC1 [Compound 2, (Z)-3-(3-(3,5-bis(trifluoromethyl)phenyl)-1H-1,2,4-triazol-1-yl)-N′-(2-morpholinoacetyl)acrylohydrazide]
[1]
  body weight, food and water intake: without adversely affecting body weight, food and water intake
  disease activity index / IMQ-induced disease manifestation: diminished IMQ-induced disease manifestation; also recorded: reduction in disease activity index in comparison to the vehicle treated group
[2]; 4 mg/kg orally, days 6-12
  total arthritis score compared to vehicle: significantly reduced total arthritis scores
[2]; 7.5 mg/kg or 4 mg/kg orally
  anti-arthritic activity (mean arthritis scores, paw thickness): significant anti-arthritic activity
[2]; 7.5 mg/kg or 4 mg/kg orally, days 5-12
  rear paw arthritis score compared to vehicle: significantly reduced rear paw arthritis scores
[2]; 7.5 mg/kg orally, days 5-12
  total arthritis score compared to vehicle: significantly reduced total arthritis scores
